Numbered stars: 1 amine (or outer) side, 2 acyl side, 3 side chain; on linkers, the order of the positions; unused ones are H or OH. Bridge positions count the residues as written; N and C are the ends. Square brackets hold non-standard residues; d marks the D form. Peptide text beside a SMILES is read from it. ξ: configuration not given here. ξαMeNle(6-ylidene) = CC(CCCC=[*:3])(N[*:1])C(=O)[*:2]; X1 = CC(CCCCCCC=[*:3])(N[*:1])C(=O)[*:2]; R8 = C=CCCCCCC[C@@](C)(N)C(=O)O; S5 = C=CCCC[C@](C)(N)C(=O)O
Legend:
NCI-H524 = assay type: cell-based; conditions: 72 h
Protocol: NCI-H524, lung (small cell lung cancer, SCLC), ATCC-CRL-5831;
(§1) Cell line MCF-7 was cultured in incubator under CO2 (6%) at 37° C. in DMEM high glucose (Dulbecco's Modified Eagle Solution, Gibco-BRL 31966-21) medium with 10% fetal bovine serum inactivated (FBS) (Gibco-BRL 10106-169). Cell lines HL-60, NCI-H524, NCI-H526, NCI-H69, NCI-H82, NCI-H187 and H5B were cultured in an incubator at 37° C. in RPMI-1640 (Sigma R8758) medium with 10% of fetal bovine serum inactivated (FBS) and 2 mM glutamine (Sigma G7513). Cell line NCI-H510A was cultured in incubator in F12K medium with 10% of fetal bovine serum inactivated (FBS). Cell line GBM-18 and GBM-27 were cultured in incubator under CO2 (6%) at 37° C. in complete medium (Neurobasal+B27+Glutamax+Growth factors).
During the amplification step and the assays, adherent cells were rinsed with DPBS (Dulbecco's Phosphate Buffered Saline, Sigma D1283) three times and afterward treated for 5 minutes with trypsin ([…]) (Gibco-BRL, 15400054) in solution of DPBS at 37° C., and, once detached, transferred in the culturing medium. No-adherent cells were centrifuged and transferred in the culturing medium. Cells were counted in a Neubauer chamber after labelling with Tripan-Blue. […]
(§2) Cells were incubated during 72 h in incubator under CO2 atmosphere at 37° C. Cell viability was measured by means of MTT (3-(4,5-dimethylthiazol-2-yl)-2,5-diphenyltetrazolium bromide) assay, Alamar Blue® (Biosource DAL1100) and Hexosaminidase activity test, consecutively, following manufacturer instructions.
MTT: 1. […] Absorbance at 570 nm was finally measured.
Alamar Blue: 10 μl Alamar Blue solution was added to each well and the plates were incubated for […] in the incubator. Fluorescence ratio at 535/590 (excitation/emission) was measured in Cytofluor (Millipore) fluorimeter. Blank control was determined by lysis of untreated cells with con 2% of Triton X100, right before adding Alamar Blue solution. […]

NCI-H526 = conditions: 72 h
Protocol: NCI-H526, epithelial (small cell lung cancer, SCLC), ATCC-CRL-5811;
During the amplification step and the assays, adherent cells were rinsed with DPBS (Dulbecco's Phosphate Buffered Saline, Sigma D1283) three times and afterward treated for 5 minutes with trypsin ([0.5 g/ml]/EDTA [0.2 g/ml]) (Gibco-BRL, 15400054) in solution of DPBS at 37° C., and, once detached, transferred in the culturing medium. No-adherent cells were centrifuged and transferred in the culturing medium. Cells were counted in a Neubauer chamber after labelling with Tripan-Blue. […]
MTT: 1. […] Absorbance at 570 nm was finally measured. […]

NCI-H187 = assay type: cell-based; conditions: 72 h
Protocol: NCI-H187, epithelial (small cell lung cancer, SCLC), ATCC-CRL-5804;
as §1
(§3) During the amplification step and the assays, adherent cells were rinsed with DPBS (Dulbecco's Phosphate Buffered Saline, Sigma D1283) three times and afterward treated for 5 minutes with trypsin ([…]) (Gibco-BRL, 15400054) in solution of DPBS at 37° C., and, once detached, transferred in the culturing medium. No-adherent cells were centrifuged and transferred in the culturing medium. Cells were counted in a Neubauer chamber after labelling with Tripan-Blue.
(§4) MCF-7, NCI-H187, NCI-H69, NCI-H526 and H5B cells were seeded at a density of 5000 cells/well; NCI-H524 and NCI-H82 were seeded at a density of 2500 cells/well; HL-60 and NCI-H510A at 10000 cells/well in 100 μl of medium in 96 well plates. After 24 h, the compounds to be tested were added to calculate the dose/response curve at the starting concentration of 100 μM with serial dilutions (1:1). Controls were the untreated cells. Each experiment was performed in triplicate.
as §2
(§5) MTT: 1. Stock solution of MTT (475989 Calbiochem) was 5 mg/ml in PBS 1×. As negative control (experiment noise) 3 wells were treated with 20 μl/well of a solution of SDS 10% in H2O. The same control was used for Alamar Blue/Hexosaminidase. 10 μl/well of MTT solution were added and the plate was incubated for 3-4 hr. The medium was discarded and 100 μl of extracting buffer (PBS 1×, 15% SDS, 50% […] N,N-Dimethylformamide, pH 4,7) were added to each well. Plates were incubated for 16 h at room temperature under orbital shaking. Absorbance at 570 nm was finally measured.
(§6) Alamar Blue: 10 μl Alamar Blue solution was added to each well and the plates were incubated for […] in the incubator. Fluorescence ratio at 535/590 (excitation/emission) was measured in Cytofluor (Millipore) fluorimeter. Blank control was determined by lysis of untreated cells with con 2% of Triton X100, right before adding Alamar Blue solution.
(§7) Hexosaminidase activity test: after Alamar Blue lecture, medium was discarded and plates were rinsed once with PBS. 60 μl hexosaminidase substrate (p-nitrophenol-N-acetyl-beta-D-glucosamide 7.5 mM [Sigma N-9376], sodium citrate 0.1 M, pH 5.0, 0.25% Triton X-100) was added to each well and the plates were incubated at 37° C. for 2-5 h, according to the cell type (hexosaminidase activity changes according to the cell type). […] Blank control was the same as described before.
(§8) Data analysis was performed calculating the percentage of cell viability normalized vs. the values of negative control, which was considered equal to 100%. The dose/response curve was fitted through the sigmoidal equation dose-response (variable slope) and the EC50 values were calculated as follow: Y=Bottom+(Top−Bottom)/(1+10^{[(Log EC50−X)*HillSlope]},

NCI-H510A = assay type: cell-based; conditions: 72 h
Protocol: (§9) NCI-510A, epithelial (small cell lung cancer, SCLC), ATCC-HBT-124; and Hepatocytes (normal liver), from a donor was provided by Foundation DTI-Donation & Transplantation Institute from surgical wastes and from organs not suitable for transplantation
as §1, §3, §4, §2, §5, §6, §7, §8

cancer cell lines = experiment: Inhibition of cancer cell proliferation, general statements; assay type: cell-based
Protocol: as §4, §2, §8

NCI-H82 = assay type: cell-based; conditions: 72 h
Protocol: NCI-H82, epithelial (small cell lung cancer, SCLC), ATCC-CRL-5811;
as §1, §3, §4, §2, §5, §6, §7, §8

Human hepatocytes = experiment: Hepatotoxicity assay, trypan blue exclusion, 24 h; assay type: cell-based; conditions: human hepatocytes, 0.5% SDS
Text: as §9
Human liver from a donor was subjected to hepatocyte isolation by using a two-step tissue microperfusion technique taking maximum care to avoid anoxia before cannulation, since hepatocytes are cells highly sensitive to oxygen levels. An initial anoxic state could result in a low viability of the cells, and will later affect their metabolic capacity in the culture. Briefly, liver tissue was cannulated by using the accessible vessels with a 1 mm-diameter needle. A balanced salt solution was injected to clean the organ by using a peristaltic pump adjusted to a flow rate of 18-20 ml/min. After washing, a solution containing collagenase was added for liver disintegration. The cell suspension obtained using this process was filtered and centrifuged and, after a couple of washings to remove collagenase, cells were re-suspended in culture medium Ham's F-12/William (1:1) medium supplemented with 2 mM glutamine, […] sodium selenite, 2% newborn calf serum, 50 mU/ml penicillin, 50 μg/ml streptomycin, 0.1% bovine serum albumin, 1.68 mM NAME, 26 mM sodium bicarbonate, 25 μg/ml transferrin, 65.5 μM ethanolamine, 7.2 μM linoleic acid, 17.5 mM glucose, 6.14 mM ascorbic acid and 10 nM insulin.
After resuspension, a cell aliquot was removed and viability was determined by cell counting using the trypan blue exclusion method. Trypan blue uptake is the result of cell membrane alteration and in consequence of cell death. Thus, to quantify cell viability, 0.4% trypan blue in saline was added to the cells and these were immediately loaded in a Neubauer chamber. Viable cells were counted in 5 different fields under the optical microscope as non-blue cells. % Viability=Number of non-blue cells×100/Number of total cells Viability and Hepatoxicity Assay
Human hepatocytes isolated and re-suspended as described before were seeded at 100,000 viable cells/well on 96 collagen-coated plates in order to assess compound's cytotoxicity. After 1 hour in culture, medium was renewed to eliminate cell debris. Cultured human hepatocytes were allowed to stay in culture for 24 hours prior performing the experiments. After 24 h, the compounds to be tested were added to calculate the dose/response curve at the starting concentration of 400 μM with serial dilutions. Each experiment was performed in triplicate. Cells were incubated during 24 h in incubator under CO2 atmosphere at 37° C.
The viability was determined by cell counting using the trypan blue exclusion method. % Viability=Number of non-blue cells×100/Number of total cells Statistics

Row | Structure (SMILES) | EC50 (NCI-H524) [µM] | EC50 (NCI-H526) [µM] | EC50 (NCI-H187) [µM] | EC50 (NCI-H510A) [µM] | inhibition of cancer cell proliferation (in words) (cancer cell lines) | EC50 (NCI-H82) [µM] | % Viability (Human hepatocytes) [%]
1 | CC(C)C[C@@H]1NC(=O)[C@H](CC(N)=O)NC(=O)[C@H](C(C)C)NC(=O)C(C)(NC(=O)[C@H](CCCCN)NC(=O)[C@@H](NC(=O)[C@H](CCCNC(=N)N)NC(=O)[C@H](CC(N)=O)NC(=O)[C@@H](N)CCCNC(=N)N)C(C)C)CCCC=CCCCC(C)(C(=O)N[C@@H](Cc2ccccc2)C(=O)N[C@@H](C)C(=O)N[C@H](C(=O)N[C@@H](CC(C)C)C(=O)N[C@@H](CCCNC(=N)N)C(=O)N[C@@H](CCC(=O)O)C(=O)N[C@@H](Cc2c[nH]cn2)C(N)=O)[C@@H](C)O)NC1=O (stereo partly drawn) [H02] (H-RNRVK[ξαMeNle(6-ylidene)]VNL[ξαMeNle(6-ylidene)]FATLREH-NH2; staple 6-10; N-terminus and C-terminus assumed) | ~15 | ~10 |  |  |  |  | 
2 | CC(C)C[C@H](NC(=O)[C@H](CCCCN)NC(=O)[C@@H](NC(=O)[C@H](CCCNC(=N)N)NC(=O)[C@H](CC(N)=O)NC(=O)[C@@H](N)CCCNC(=N)N)C(C)C)C(=O)N[C@H](C(=O)N[C@@H](CC(N)=O)C(=O)N[C@@H](CC(C)C)C(=O)N[C@]1(C)CCCCCCC=CCCC[C@@](C)(C(N)=O)NC(=O)[C@H](CCC(=O)O)NC(=O)[C@H](CCCNC(=N)N)NC(=O)[C@H](CC(C)C)NC(=O)[C@H]([C@@H](C)O)NC(=O)[C@H](C)NC(=O)[C@H](Cc2ccccc2)NC1=O)C(C)C [H04] (H-RNRVKLVNL[R8]FATLRE[S5]-NH2; staple 10-17; N-terminus and C-terminus assumed) | ~9 | ~11 |  |  |  |  | 
3 | CC(C)C[C@H](NC(=O)[C@H](CCCCN)NC(=O)[C@@H](NC(=O)[C@@H](N)CCCNC(=N)N)C(C)C)C(=O)N[C@H](C(=O)N[C@@H](CCC(N)=O)C(=O)N[C@@H](CC(C)C)C(=O)NC1(C)CCCCCCC=CCCCC(C)(C(=O)N[C@H](C(=O)N2CCC[C@H]2C(N)=O)C(C)C)NC(=O)[C@H](CCC(=O)O)NC(=O)[C@H](CCCNC(=N)N)NC(=O)[C@H](CC(C)C)NC(=O)[C@H]([C@@H](C)O)NC(=O)[C@H](C)NC(=O)[C@H](Cc2ccccc2)NC1=O)C(C)C (stereo partly drawn) [IDP-H14-Q6] (H-RVKLVQL[X1]FATLRE[ξαMeNle(6-ylidene)]VP-NH2; staple 8-15; N-terminus and C-terminus assumed) |  |  | ~7.5 | ~12.5 | active | ~7.5 | 
4 | CC(C)C[C@H](NC(=O)[C@H](CCCCN)NC(=O)[C@@H](NC(=O)[C@@H](N)CCCNC(=N)N)C(C)C)C(=O)N[C@H](C(=O)N[C@@H](CC(N)=O)C(=O)N[C@@H](CC(C)C)C(=O)NC1(C)CCCCCCC=CCCCC(C)(C(=O)N[C@H](C(=O)N2CCC[C@H]2C(N)=O)C(C)C)NC(=O)[C@H](CCC(N)=O)NC(=O)[C@H](CCCNC(=N)N)NC(=O)[C@H](CC(C)C)NC(=O)[C@H]([C@@H](C)O)NC(=O)[C@H](C)NC(=O)[C@H](Cc2ccccc2)NC1=O)C(C)C (stereo partly drawn) [IDP-H14-Q13] (H-RVKLVNL[X1]FATLRQ[ξαMeNle(6-ylidene)]VP-NH2; staple 8-15; N-terminus and C-terminus assumed) |  |  | ~7.5 | ~12.5 | active | ~7.5 | 
5 | CC(C)C[C@H](NC(=O)[C@H](CCCCN)NC(=O)[C@@H](NC(=O)[C@@H](N)CCCNC(=N)N)C(C)C)C(=O)N[C@H](C(=O)N[C@@H](CC(N)=O)C(=O)N[C@@H](CC(C)C)C(=O)NC1(C)CCCCCCC=CCCCC(C)(C(=O)N[C@H](C(=O)N[C@@H](CCC(N)=O)C(N)=O)C(C)C)NC(=O)[C@H](CCC(=O)O)NC(=O)[C@H](CCCNC(=N)N)NC(=O)[C@H](CC(C)C)NC(=O)[C@H]([C@@H](C)O)NC(=O)[C@H](C)NC(=O)[C@H](Cc2ccccc2)NC1=O)C(C)C (stereo partly drawn) [IDP-H14-Q15] (H-RVKLVNL[X1]FATLRE[ξαMeNle(6-ylidene)]VQ-NH2; staple 8-15; N-terminus and C-terminus assumed) |  |  | ~7.5 | ~7.5 | active | ~7.5 | 
6 | CC(C)C[C@H](NC(=O)[C@H](CCCCN)NC(=O)[C@@H](NC(=O)[C@@H](N)CCCNC(=N)N)C(C)C)C(=O)N[C@H](C(=O)N[C@@H](CC(N)=O)C(=O)N[C@@H](CC(C)C)C(=O)NC1(C)CCCCCCC=CCCCC(C)(C(=O)N[C@H](C(=O)N[C@@H](CO)C(N)=O)C(C)C)NC(=O)[C@H](CCC(=O)O)NC(=O)[C@H](CCCNC(=N)N)NC(=O)[C@H](CC(C)C)NC(=O)[C@H]([C@@H](C)O)NC(=O)[C@H](C)NC(=O)[C@H](Cc2ccccc2)NC1=O)C(C)C (stereo partly drawn) [IDP-H14-S15] (H-RVKLVNL[X1]FATLRE[ξαMeNle(6-ylidene)]VS-NH2; staple 8-15; N-terminus and C-terminus assumed) |  |  | ~7.5 | ~7.5 | active | ~7.5 | 
7 | CCCCCCCCCCCCOS(=O)(=O)[O-].[Na+] [SDS, reference compound] |  |  |  |  |  |  | 13.6

— US11440939B2, “Anticancer peptides” (IDP DISCOVERY PHARMA, S.L., priority 2017, dated 2022)
